The values that follow are results of earlier work, collected in patent US20120115745A1, “METHODS FOR PREDICTING SENSITIVITY TO TREATMENT WITH A TARGETED TYROSINE KINASE INHIBITOR” (priority 2010, published 2012).

A word on the IC50: it is the point on the concentration scale where inhibition reaches its midpoint.

A value given as a limit tells only on which side of the number the result lay.

Series [1] addresses unrelated receptor tyrosine kinases, soluble tyrosine kinases and serine/threonine kinases. The conditions noted are these: less activity than against VEGF and PDGF receptor families.
The test system of series [2] is tumor cells that are dependent on mutant, constitutively active, FLT3 and KIT kinases.

As to `Cc1ccc(F)c(NC(=O)Nc2ccc(-c3cccc4[nH]nc(N)c34)cc2)c1` [ABT-869, N-(4-(3-amino-1H-indazol-4-yl)phenyl)-N′-(2-fluoro-5-methylphenyl)urea], in series [1], the 50% inhibitory concentration (IC50) is over 1 µM. Further, the “anti-proliferative and apoptotic effects on tumor cells” value in series [2] is “potent anti-proliferative and apoptotic effects”.
